molecular target: T1, Full-length human PRMT8 (Homo sapiens, UniProt Q9NR22); assay: PRMT8 biochemical assay (3H-SAM Flashplate, peptide substrate)
T1 construct: Full-length human PRMT8 (NM_019854.4) isoform 1 transcript clone; made in house
Description: General Materials. S-adenosylmethionine (SAM), S-adenosylhomocysteine (SAH), bicine, Tween20, dimethylsulfoxide (DMSO), bovine skin gelatin (BSG), isopropyl-β-D-thiogalactopyranoside (IPTG), and Tris(2-carboxyethyl)phosphine hydrochloride solution (TCEP) were purchased from Sigma-Aldrich at the highest level of purity possible. ^3H-SAM was purchase from American Radiolabeled Chemicals with a specific activity of 80 Ci/mmol. 384-well streptavidin Flashplates were purchased from PerkinElmer.
Substrates. Peptide representative of human histone H4 residues 31-45 was synthesized with an N-terminal linker-affinity tag motif and a C-terminal amide cap by 21st Century Biochemicals.
Protein Expression. E. coli (BL21(DE3) Gold, Stratagene) made competent by the CaCl2 method were transformed with the PRMT8 construct and ampicillin selection. Protein over-expression was accomplished by growing the PRMT8 expressing E. coli clone and inducing expression with 0.3 mM IPTG at 16° C. The culture was grown for 12 hours, harvested by centrifugation, and stored at −80° C. for purification.
Protein Purification. […] GST-tagged PRMT8 was eluted with 50 mM Tris, 2 mM glutathione, pH 7.8. Pooled fractions were cleaved by thrombin (10 U) and dialysed in buffer A. GST was removed by reloading the cleaved protein sample onto glutathione sepharose column and PRMT8 was collected in the flow-through fractions. PRMT8 was purified further by ceramic hydroxyapatite chromatography. The column was washed with 50 mM phosphate buffer, 100 mM NaCl, 5% glycerol, 5 mM β-mercaptoethanol, pH 7.8 and PRMT8 was eluted by 100 mM phosphate in the same buffer. Protein was concentrated and buffer was exchanged to 50 mM Tris, 300 mM NaCl, 10% glycerol, 5 mM β-mercaptoethanol, pH 7.8 by ultrafiltration.
General Procedure for PRMT8 Enzyme Assays on Peptide Substrates. The assays were all performed in a buffer consisting of 20 mM Bicine (pH=7.6), 1 mM TCEP, 0.005% BSG, and 0.002% Tween 20, prepared on the day of use. […] DMSO (1 ul) was added to Columns 11, 12, 23, 24, rows A-H for the maximum signal control and 1 ul of SAH, a known product and inhibitor of PRMT8, was added to columns 11, 12, 23, 24, rows I-P for the minimum signal control. A cocktail (40 ul) containing the PRMT8 enzyme was added by Multidrop Combi (Thermo-Fisher). The compounds were allowed to incubate with PRMT8 for 30 min at room temperature, then a cocktail (10 ul) containing ^3H-SAM and peptide was added to initiate the reaction (final volume=51 ul). […] The assays were stopped by the addition of non-radiolabeled SAM (10 ul) to a final concentration of 400 uM, which dilutes the ^3H-SAM to a level where its incorporation into the peptide substrate is no longer detectable. 50 ul of the reaction in the 384-well polypropylene plate was then transferred to a 384-well Flashplate and the biotinylated peptides were allowed to bind to the streptavidin surface for at least 1 hour before being washed once with 0.1% Tween20 in a Biotek ELx405 plate washer. The plates were then read in a PerkinElmer TopCount plate reader to measure the quantity of ^3H-labeled peptide bound to the Flashplate surface, measured as disintegrations per minute (dpm) or alternatively, referred to as counts per minute (cpm).
Where dpm=disintegrations per minute, cmpd=signal in assay well, and min and max are the respective minimum and maximum signal controls.
Where top and bottom are the normally allowed to float, but may be fixed at 100 or 0 respectively in a 3-parameter fit. The Hill Coefficient normally allowed to float but may also be fixed at 1 in a 3-parameter fit. Y is the % inhibition and X is the compound concentration.

T1 sequence (Q9NR22 whole entry, canonical isoform): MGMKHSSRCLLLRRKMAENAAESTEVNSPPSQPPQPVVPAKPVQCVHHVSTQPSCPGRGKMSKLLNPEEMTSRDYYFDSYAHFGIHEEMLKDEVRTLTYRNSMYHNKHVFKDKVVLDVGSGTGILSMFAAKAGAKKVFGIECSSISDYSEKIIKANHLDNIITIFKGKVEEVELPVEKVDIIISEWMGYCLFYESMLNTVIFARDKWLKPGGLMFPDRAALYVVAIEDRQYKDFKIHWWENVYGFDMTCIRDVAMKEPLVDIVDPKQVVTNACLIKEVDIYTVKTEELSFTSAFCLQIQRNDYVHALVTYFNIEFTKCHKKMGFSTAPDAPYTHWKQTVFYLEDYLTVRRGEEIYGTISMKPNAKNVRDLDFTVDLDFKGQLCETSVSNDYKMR

| SMILES | IC50 |
| --- | --- |
| COc1ccc(Cl)cc1-c1n[nH]cc1CN(C)CCN [Compound 157] | 3010 to 10000 nM |
| Cc1cccc(-c2n[nH]cc2CN(C)CCN)c1 [Compound 131] | 101 to 1000 nM |
| CN(CCN)Cc1c[nH]nc1-c1cc(F)cc(F)c1 [Compound 111] | 101 to 1000 nM |
| CCNC(=O)c1ccc(-c2n[nH]cc2CN(C)CCN)cc1 [Compound 136] | 101 to 1000 nM |
| Cc1ccc(F)cc1-c1n[nH]cc1CN(C)CCN [Compound 159] | 101 to 1000 nM |
| COc1ccc(-c2n[nH]cc2CN(C)CCN)cc1 [Compound 153] | 101 to 1000 nM |
| COCCOc1ccc(-c2n[nH]cc2CN(C)CCN)cc1 [Compound 167] | 101 to 1000 nM |
| CN(CCN)Cc1c[nH]nc1-c1ccc(C(F)(F)F)c(Cl)c1 [Compound 117] | < 100 nM |
| Cc1cc(Cl)ccc1-c1n[nH]cc1CN(C)CCN [Compound 133] | 101 to 1000 nM |
| CN(CCN)Cc1c[nH]nc1-c1cc(Cl)ccc1F [Compound 156] | 1010 to 3000 nM |
| CC(=O)c1cccc(-c2n[nH]cc2CN(C)CCN)c1 [Compound 112] | 101 to 1000 nM |
| COc1cc(Cl)cc(-c2n[nH]cc2CN(C)CCN)c1 [Compound 127] | 101 to 1000 nM |
| CN(CCN)Cc1c[nH]nc1-c1ccc(C(F)(F)F)cc1F [Compound 148] | 101 to 1000 nM |
| COc1ccc(F)cc1-c1n[nH]cc1CN(C)CCN [Compound 160] | 3010 to 10000 nM |
| Cc1cc(C#N)ccc1-c1n[nH]cc1CN(C)CCN [Compound 110] | 101 to 1000 nM |
| CCn1ncc(CN(C)CCNC)c1-c1ccc(F)cc1 [Compound 7] | 3010 to 10000 nM |
| COCCn1cc(CN(C)CCN)c(-c2ccc(F)cc2)n1 [Compound 5] | 3010 to 10000 nM |
| CN(CCN)Cc1c[nH]nc1-c1ccc(C2CCOCC2)cc1 [Compound 98] | 101 to 1000 nM |
| COc1ccc(-c2n[nH]cc2CN(C)CCN)cc1F [Compound 134] | 101 to 1000 nM |
| CN(CCN)Cc1c[nH]nc1-c1cccc(Cl)c1F [Compound 123] | 101 to 1000 nM |
| CN(CCN)Cc1c[nH]nc1-c1cc(C#N)ccc1Cl [Compound 147] | > 10000 nM |
| Cc1[nH]nc(-c2ccc(F)cc2)c1CN(C)CCN [Compound 169] | 1010 to 3000 nM |
| CC(C)Oc1ccc(-c2c[nH]nc2CN(C)CCN)cc1F [Compound 144] | 101 to 1000 nM |
| CC(C)c1ccc(-c2c[nH]nc2CN(C)CCN)cc1 [Compound 101] | 101 to 1000 nM |
| CN(CCN)Cc1c[nH]nc1-c1ccc(C2CC2)cc1 [Compound 116] | 101 to 1000 nM |
| CN(CCN)Cc1c[nH]nc1-c1cc(F)ccc1Cl [Compound 106] | 3010 to 10000 nM |
| CCN(CC)C(=O)c1ccc(-c2n[nH]cc2CN(C)CCN)cc1 [Compound 143] | 1010 to 3000 nM |

| SMILES | IC50 |
| --- | --- |
| CN(CCN)Cc1c[nH]nc1-c1ccc(OCCN2CCOCC2)cc1 [Compound 172] | 3010 to 10000 nM |
| Cc1ccc(-c2n[nH]cc2CN(C)CCN)cc1Cl [Compound 126] | 101 to 1000 nM |
| CN(CCN)Cc1c[nH]nc1-c1cccc(N(C)C)c1 [Compound 149] | 101 to 1000 nM |
| CN(CCN)Cc1c[nH]nc1-c1ccccc1C#N [Compound 140] | 3010 to 10000 nM |
| CC(O)c1ccc(-c2n[nH]cc2CN(C)CCN)cc1 (stereo not shown) [Compound 115] | 1010 to 3000 nM |
| CN(CCN)Cc1c[nH]nc1-c1ccc(C(F)(F)F)cc1Cl [Compound 135] | 1010 to 3000 nM |
| CN(CCN)Cc1c[nH]nc1-c1ccc(OC2CC2)cc1 [Compound 114] | < 100 nM |
| Cc1ccc(-c2n[nH]cc2CN(C)CCN)cc1 [Compound 162] | 101 to 1000 nM |
| CCOC(=O)c1cccc(-c2n[nH]cc2CN(C)CCN)c1 [Compound 150] | 101 to 1000 nM |
| CN(CCN)Cc1n[nH]cc1-c1ccc(Cl)cc1 [Compound 102] | 101 to 1000 nM |
| COc1ccc(-c2n[nH]cc2CN(C)CCN)cc1Cl [Compound 125] | 101 to 1000 nM |
| Cc1c(F)cccc1-c1n[nH]cc1CN(C)CCN [Compound 129] | 101 to 1000 nM |
| CN(CCN)Cc1n[nH]cc1-c1ccc(OC2CC2)cc1 [Compound 119] | 101 to 1000 nM |
| COc1cccc(-c2n[nH]cc2CN(C)CCN)c1 [Compound 130] | 101 to 1000 nM |
| CN(CCN)Cc1n[nH]cc1-c1ccc(C2CC2)cc1 [Compound 104] | 101 to 1000 nM |
| CN(CCN)Cc1n[nH]cc1-c1ccc(OC(F)F)cc1 [Compound 138] | 101 to 1000 nM |
| COc1ccc(-c2n[nH]cc2CN(C)CCN)c(F)c1 [Compound 107] | 101 to 1000 nM |
| CN(CCN)Cc1c[nH]nc1-c1ccc(Cl)cc1 [Compound 95] | 101 to 1000 nM |
| Cc1ccc(C#N)cc1-c1n[nH]cc1CN(C)CCN [Compound 158] | > 10000 nM |
| CCOc1ccc(-c2n[nH]cc2CN(C)CCN)cc1 [Compound 166] | 101 to 1000 nM |
| Cc1cc(F)ccc1-c1n[nH]cc1CN(C)CCN [Compound 152] | 101 to 1000 nM |
| COc1cc(-c2n[nH]cc2CN(C)CCN)ccc1F [Compound 142] | 101 to 1000 nM |
| CN(CCN)Cc1c[nH]nc1-c1ccc(C(F)(F)F)c(F)c1 [Compound 141] | 101 to 1000 nM |
| CN(CCN)Cc1n[nH]cc1-c1ccc(C(F)(F)F)cc1 [Compound 103] | 101 to 1000 nM |
| CN(CCN)Cc1n[nH]cc1-c1ccc(OC(F)(F)F)cc1 [Compound 105] | 101 to 1000 nM |
| COc1cc(F)ccc1-c1n[nH]cc1CN(C)CCN [Compound 151] | 1010 to 3000 nM |
| CN(CCN)Cc1n[nH]cc1-c1ccc(C2CCOCC2)cc1 [Compound 145] | 101 to 1000 nM |

| SMILES | IC50 |
| --- | --- |
| Cc1ccccc1-c1n[nH]cc1CN(C)CCN [Compound 161] | 1010 to 3000 nM |
| COc1ccc(-c2n[nH]cc2CN(C)CCN)c(Cl)c1 [Compound 146] | 1010 to 3000 nM |
| CN(CCN)Cc1c[nH]nc1-c1ccc(Cl)cc1F [Compound 132] | 101 to 1000 nM |
| CCn1cc(CN(C)CCNC)c(-c2ccc(F)cc2)n1 [Compound 8] | 3010 to 10000 nM |
| COc1ccccc1-c1n[nH]cc1CN(C)CCN [Compound 109] | 1010 to 3000 nM |
| CN(CCN)Cc1cnn(CC(O)CO)c1-c1ccc(F)cc1 (stereo not shown) [Compound 113] | 3010 to 10000 nM |
| NCCN(CCO)Cc1c[nH]nc1-c1ccc(F)cc1 [Compound 171] | 1010 to 3000 nM |
| CN(CCN)Cc1c[nH]nc1-c1ccc2c(c1)NC(=O)CO2 [Compound 173] | 3010 to 10000 nM |
| CCN(C)C(=O)c1ccc(-c2n[nH]cc2CN(C)CCN)cc1 [Compound 163] | 1010 to 3000 nM |
| CN(CCN)Cc1c[nH]nc1-c1cc(Cl)cc(Cl)c1 [Compound 137] | 101 to 1000 nM |
| COc1ccc(-c2n[nH]cc2CN(C)CCN)c(C(F)(F)F)c1 [Compound 154] | 3010 to 10000 nM |
| CN(CCN)Cc1c[nH]nc1-c1cccc(Cl)c1 [Compound 122] | 101 to 1000 nM |
| CC(C)Oc1ccc(-c2n[nH]cc2CN(C)CCN)cc1F [Compound 97] | < 100 nM |
| CN(CCN)Cc1cn(CC2CCOCC2)nc1-c1ccc(F)cc1 [Compound 128] | > 10000 nM |
| CN(CCN)Cc1c[nH]nc1-c1cc(F)cc(Cl)c1 [Compound 121] | 101 to 1000 nM |
| Cc1ccc(-c2n[nH]cc2CN(C)CCN)c(F)c1 [Compound 108] | 1010 to 3000 nM |
| CN(CCN)Cc1c[nH]nc1-c1ccc(OCC(F)(F)F)cc1 [Compound 96] | 101 to 1000 nM |
| CN(CCN1CCCC1)Cc1c[nH]nc1-c1ccc(C#N)cc1 [Compound 139] | > 10000 nM |
| CN(CCN)Cc1n[nH]cc1-c1ccc(C#N)cc1 [Compound 100] | 101 to 1000 nM |
| COc1ccc(-c2n[nH]cc2CN(C)CCN)c(C)c1 [Compound 155] | 101 to 1000 nM |
| CN(CCN)Cc1c[nH]nc1-c1ccc(F)cc1F [Compound 99] | 1010 to 3000 nM |
| CC(C)CN(C)C(=O)c1ccc(-c2n[nH]cc2CN(C)CCN)cc1 [Compound 164] | 1010 to 3000 nM |
| CN(CCN)Cc1c[nH]nc1-c1ccc(F)c(Cl)c1 [Compound 124] | 101 to 1000 nM |
| CN(CCN)Cc1c[nH]nc1-c1ccc(Cl)c(F)c1 [Compound 118] | 101 to 1000 nM |
| CC(C)Cc1ccc(-c2c[nH]nc2CN(C)CCN)cc1 [Compound 170] | 101 to 1000 nM |
